The values that follow come from patent US20230365592A1 (Agios Pharmaceuticals, Inc., priority 2022, published 2023).

The target in one test is T1, human PAH with the R408W mutation (Homo sapiens, UniProt P00439, R408W).
T1 construct: expressed in transfected cells
T1 sequence (P00439 1-452 R408W): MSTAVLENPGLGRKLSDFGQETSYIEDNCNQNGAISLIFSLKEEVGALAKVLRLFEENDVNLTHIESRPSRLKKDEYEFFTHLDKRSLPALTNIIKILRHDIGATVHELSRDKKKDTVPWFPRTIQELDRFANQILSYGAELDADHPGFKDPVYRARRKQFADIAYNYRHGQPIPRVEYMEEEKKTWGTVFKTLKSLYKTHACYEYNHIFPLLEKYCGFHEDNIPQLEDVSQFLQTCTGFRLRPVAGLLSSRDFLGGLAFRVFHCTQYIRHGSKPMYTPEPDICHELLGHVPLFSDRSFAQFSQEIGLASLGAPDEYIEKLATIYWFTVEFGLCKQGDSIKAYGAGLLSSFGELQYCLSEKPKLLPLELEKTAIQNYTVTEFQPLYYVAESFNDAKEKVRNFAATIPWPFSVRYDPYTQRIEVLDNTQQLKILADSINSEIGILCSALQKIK
As to the kind of experiment: Cell Based Phenylalanine Flux Assay.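 Also: after compound treatment, cells received sepiapterin plus isotope-labelled Phenylalanine for 4 hours, then labelled Tyrosine in the medium was quantified, 10-point 2-fold dilution series run in duplicate.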 The conditions noted are these: A375 cells expressing R408W PAH; 24 hrs with compound, then 20 µM sepiapterin and 800 µM 13C9,15N-Phenylalanine for 4 hours; 13C-Tyrosine by LC-MS; average where tested multiple times; read-out: AC50.
Method: Compounds were resuspended in DMSO, and 2-fold serial dilutions were performed to generate a 10-point dose curve. Compounds were added to plated cells in a total volume of 100 µl, and a final DMSO concentration of 0.5%. Each compound was tested in duplicate. Following compound addition, cells were placed in a 5% CO2, 37° C. tissue culture incubator for 24 hrs. After the incubation period, 20 µM sepiapterin and 800 µM 13C9,15N-Phenylalanine were added. After 4 hours, cell media was removed. An aliquot of 10 µl of cell media was combined with 200 µl of extraction buffer (80% acetonitrile/20% H2O) for each well. Determination of ^13C-Tyrosine concentration was assessed by liquid chromatography mass spectrometry.
Where a compound was tested multiple times, the average value of the tests is reported.
One may read the AC50 as the concentration giving half of the maximal activity seen. Consider `O=C(c1cn[nH]c1)N1CCc2[nH]cnc2C1c1cc2ccccn2n1` (stereo not drawn), for which the AC50 was over 5000 nM.

For the molecule `COc1cccn2nc(C3c4nc[nH]c4CCN3C(=O)c3cnn4cc(N5CCOCC5)ccc34)cc12` (stereo not drawn), the AC50 was over 5000 nM.

Take `Cc1cccn2nc(C3c4nc[nH]c4CCN3C(=O)c3cc(C(C)(C)C)nn3C)cc12` (stereo not drawn): the AC50 fell in the range of 1000 to 5000 nM.

With `Cc1nc(C(=O)N2CCc3[nH]cnc3C2c2cc3cccc(C)n3n2)n(C)n1` (stereo not drawn), the AC50 lay within 1000 to 5000 nM.

As for `COc1ccc2c(C(=O)N3CCc4[nH]cnc4C3c3cc4cccc(C(F)(F)F)n4n3)cnn2c1` (stereo not drawn), the AC50 was in the range of 1000 to 5000 nM.

For the molecule `Cn1cc(-c2ccc3c(C(=O)N4CCc5[nH]cnc5C4c4cc5ccccn5n4)cnn3c2)cn1` (stereo not drawn), the AC50 was in the range of 1000 to 5000 nM.

Consider `CC(C)(O)c1nnc(C(=O)N2CCc3[nH]cnc3C2c2cc3cccc(C(F)(F)F)n3n2)o1` (stereo not drawn), for which the half-maximal activity concentration (AC50) is 1000 to 5000 nM.

`O=C(c1cnn2cc(C3CC3)ccc12)N1CCc2[nH]cnc2C1c1cc2cccc(C(F)(F)F)n2n1` (stereo not drawn): the AC50 is 1000 to 5000 nM.

The same test, now with this note: A375 cells expressing human PAH R408W; 24 hrs compound incubation; 13C-Tyrosine by LC-MS; average where tested multiple times; read-out: AC50.
Regarding `O=C(c1ocnc1C(F)F)N1CCc2[nH]cnc2[C@@H]1c1cc2cc(F)ccn2n1` [Example 2401, (R)-(4-(difluoromethyl)oxazol-5-yl)(4-(5-fluoropyrazolo[1,5-a]pyridin-2-yl)-6,7-dihydro-1H-imidazo[4,5-c]pyridin-5(4H)-yl)methanone], the concentration at half-maximal activity (AC50) lay in the range of 1000 to 5000 nM.

Consider `Cn1cc(-c2nnc(C(=O)N3CCc4[nH]cnc4[C@@H]3c3cc4c(C5CC5)cccn4n3)o2)cn1` [Example 1877, (R)-(4-(4-cyclopropylpyrazolo[1,5-a]pyridin-2-yl)-1,4,6,7-tetrahydro-5H-imidazo[4,5-c]pyridin-5-yl)(5-(1-methyl-1H-pyrazol-4-yl)-1,3,4-oxadiazol-2-yl)methanone], for which the AC50 is over 5000 nM.

Turning to `Cc1c(-c2ncc(C(=O)N3CCc4[nH]cnc4[C@@H]3c3cc4c(F)cccn4n3)o2)cnn1C` [Example 2067, (R)-(2-(1,5-dimethyl-1H-pyrazol-4-yl)oxazol-5-yl)(4-(4-fluoropyrazolo[1,5-a]pyridin-2-yl)-1,4,6,7-tetrahydro-5H-imidazo[4,5-c]pyridin-5-yl)methanone], the AC50 was over 5000 nM.

Consider `CC(C)(C)c1nnc(N2CCc3[nH]cnc3[C@H]2c2cc3c(Cl)cccn3n2)o1` [Example 1833, (S)-2-(tert-butyl)-5-(4-(4-chloropyrazolo[1,5-a]pyridin-2-yl)-6,7-dihydro-1H-imidazo[4,5-c]pyridin-5(4H)-yl)-1,3,4-oxadiazole], for which the AC50 lay within 500 to 1000 nM.

Consider `Cc1cccc(-c2nnc(N3CCc4[nH]cnc4[C@H]3c3cc4c(C(F)(F)F)cccn4n3)o2)n1` [Example 2357, (S)-2-(6-methylpyridin-2-yl)-5-(4-(4-(trifluoromethyl)pyrazolo[1,5-a]pyridin-2-yl)-1,4,6,7-tetrahydro-5H-imidazo[4,5-c]pyridin-5-yl)-1,3,4-oxadiazole], for which the AC50 was in the range of 500 to 1000 nM.

As for `Cc1ncccc1-c1nnc(N2CCc3[nH]cnc3[C@H]2c2cc3c(C(C)C)cccn3n2)o1` [Example 2234, (S)-2-(4-(4-isopropylpyrazolo[1,5-a]pyridin-2-yl)-1,4,6,7-tetrahydro-5H-imidazo[4,5-c]pyridin-5-yl)-5-(2-methylpyridin-3-yl)-1,3,4-oxadiazole], the AC50 fell in the range of 500 to 1000 nM.

`FC(F)(F)c1nnc(N2CCc3[nH]cnc3[C@H]2c2cc3c(C(F)(F)F)cccn3n2)o1` [Example 1821, (S)-2-(trifluoromethyl)-5-(4-(4-(trifluoromethyl)pyrazolo[1,5-a]pyridin-2-yl)-6,7-dihydro-1H-imidazo[4,5-c]pyridin-5(4H)-yl)-1,3,4-oxadiazole]: the AC50 was under 500 nM.

As to `Cc1cccnc1-c1nnc(N2CCc3[nH]cnc3[C@@H]2c2cc3c(C4CC4)cccn3n2)o1` [Example 2282, (R)-2-(4-(4-cyclopropylpyrazolo[1,5-a]pyridin-2-yl)-1,4,6,7-tetrahydro-5H-imidazo[4,5-c]pyridin-5-yl)-5-(3-methylpyridin-2-yl)-1,3,4-oxadiazole], the AC50 was over 5000 nM.

Regarding `O=C(c1ncco1)N1CCc2[nH]cnc2[C@@H]1c1cc2c(C(F)F)cccn2n1` [Example 2077, (R)-(4-(4-(difluoromethyl)pyrazolo[1,5-a]pyridin-2-yl)-1,4,6,7-tetrahydro-5H-imidazo[4,5-c]pyridin-5-yl)(oxazol-2-yl)methanone], the AC50 is over 5000 nM.

As for `FC(F)(F)c1nnc(N2CCc3[nH]cnc3[C@@H]2c2cc3c(C4CC4)cccn3n2)o1` [Example 2056, (R)-2-(4-(4-cyclopropylpyrazolo[1,5-a]pyridin-2-yl)-1,4,6,7-tetrahydro-5H-imidazo[4,5-c]pyridin-5-yl)-5-(trifluoromethyl)-1,3,4-oxadiazole], the AC50 is over 5000 nM.

Staying with this test, now noted: A375 cells expressing human R408W PAH; 24 hrs compound incubation; 13C-Tyrosine by LC-MS; average where tested multiple times; read-out: AC50.
In the case of `Cc1cccc(-c2nnc(C(=O)N3CCc4[nH]cnc4[C@@H]3c3cc4ccccn4n3)o2)n1` [Example 1383, (R)-(5-(6-methylpyridin-2-yl)-1,3,4-oxadiazol-2-yl)(4-(pyrazolo[1,5-a]pyridin-2-yl)-6,7-dihydro-1H-imidazo[4,5-c]pyridin-5(4H)-yl)methanone], the AC50 is over 5000 nM.

`Fc1cccn2nc([C@H]3c4nc[nH]c4CCN3c3nnc(-c4ccccn4)o3)cc12` [Example 1612, (R)-2-(4-(4-fluoropyrazolo[1,5-a]pyridin-2-yl)-6,7-dihydro-1H-imidazo[4,5-c]pyridin-5(4H)-yl)-5-(pyridin-2-yl)-1,3,4-oxadiazole]: the AC50 was over 5000 nM.

`Cc1nc(C(C)(C)F)oc1C(=O)N1CCc2[nH]cnc2[C@H]1c1cc2c(Cl)cccn2n1` [Example 1276, (S)-(4-(4-chloropyrazolo[1,5-a]pyridin-2-yl)-6,7-dihydro-1H-imidazo[4,5-c]pyridin-5(4H)-yl)(2-(2-fluoropropan-2-yl)-4-methyloxazol-5-yl)methanone]: the AC50 is under 500 nM.

`Cc1nc(C(C)(C)C#N)oc1C(=O)N1CCc2[nH]cnc2[C@H]1c1cc2ccccn2n1` [Example 992, (S)-2-methyl-2-(4-methyl-5-(4-(pyrazolo[1,5-a]pyridin-2-yl)-4,5,6,7-tetrahydro-1H-imidazo[4,5-c]pyridine-5-carbonyl)oxazol-2-yl)propanenitrile]: the AC50 lay within 500 to 1000 nM.

Consider `O=C(c1nnc(-c2cccnc2)o1)N1CCc2[nH]cnc2[C@H]1c1cc2cccc(C(F)F)n2n1` [Example 1468, (S)-(4-(7-(difluoromethyl)pyrazolo[1,5-a]pyridin-2-yl)-6,7-dihydro-1H-imidazo[4,5-c]pyridin-5(4H)-yl)(5-(pyridin-3-yl)-1,3,4-oxadiazol-2-yl)methanone], for which the AC50 was under 500 nM.

Take `CC(C)(O)c1nc(C(F)(F)F)c(C(=O)N2CCc3[nH]cnc3[C@H]2c2cc3cccc(Cl)n3n2)o1` [Example 1192, (S)-(4-(7-chloropyrazolo[1,5-a]pyridin-2-yl)-6,7-dihydro-1H-imidazo[4,5-c]pyridin-5(4H)-yl)(2-(2-hydroxypropan-2-yl)-4-(trifluoromethyl)oxazol-5-yl)methanone]: the AC50 is under 500 nM.

Consider `O=C(c1nnc(-c2cnn(C(F)F)c2)o1)N1CCc2[nH]cnc2[C@H]1c1cc2cccc(Cl)n2n1` [Example 1120, (S)-(4-(7-chloropyrazolo[1,5-a]pyridin-2-yl)-6,7-dihydro-1H-imidazo[4,5-c]pyridin-5(4H)-yl)(5-(1-(difluoromethyl)-1H-pyrazol-4-yl)-1,3,4-oxadiazol-2-yl)methanone], for which the AC50 is under 500 nM.

In the case of `O=C(c1cnco1)N1CCc2[nH]cnc2[C@H]1c1cc2c(F)cccn2n1` [Example 760, (S)-(4-(4-fluoropyrazolo[1,5-a]pyridin-2-yl)-6,7-dihydro-1H-imidazo[4,5-c]pyridin-5(4H)-yl)(oxazol-5-yl)methanone], the AC50 was 1000 to 5000 nM.

For `CN(C)c1ccc2c(C(=O)N3CCc4[nH]cnc4[C@H]3c3cc4c(C(F)F)cccn4n3)cnn2c1` [Example 1770, (S)-(4-(4-(difluoromethyl)pyrazolo[1,5-a]pyridin-2-yl)-6,7-dihydro-1H-imidazo[4,5-c]pyridin-5(4H)-yl)(6-(dimethylamino)pyrazolo[1,5-a]pyridin-3-yl)methanone], the AC50 was 500 to 1000 nM.

With `O=C(c1nnc(-c2cccnc2)o1)N1CCc2[nH]cnc2[C@H]1c1cc2c(C(F)(F)F)cccn2n1` [Example 1302, (S)-(5-(pyridin-3-yl)-1,3,4-oxadiazol-2-yl)(4-(4-(trifluoromethyl)pyrazolo[1,5-a]pyridin-2-yl)-6,7-dihydro-1H-imidazo[4,5-c]pyridin-5(4H)-yl)methanone], the AC50 is under 500 nM.

For `O=C(c1ccnn1C(F)(F)F)N1CCc2[nH]cnc2[C@@H]1c1cc2ccccn2n1` [Example 717, (R)-(4-(pyrazolo[1,5-a]pyridin-2-yl)-6,7-dihydro-1H-imidazo[4,5-c]pyridin-5(4H)-yl)(1-(trifluoromethyl)-1H-pyrazol-5-yl)methanone], the AC50 is 500 to 1000 nM.

As to `C[C@@H](O)c1nc(C(F)F)c(C(=O)N2CCc3[nH]cnc3[C@H]2c2cc3c(F)cccn3n2)o1` [Example 710, (4-(difluoromethyl)-2-((R)-1-hydroxyethyl)oxazol-5-yl)((s)-4-(4-fluoropyrazolo[1,5-a]pyridin-2-yl)-6,7-dihydro-1H-imidazo[4,5-c]pyridin-5(4H)-yl)methanone], the AC50 is under 500 nM.
